Results reported in publication PMC6514680, “Labdane and Abietane Diterpenoids from Juniperus oblonga and Their Cytotoxic Activity” (Molecules, 2019).
Where two headings read alike, the source gives them in different places.

Columns and labels:
[1] = MTT cytotoxicity assay, MCF-7; parameters: cytotoxicity at 72 h: dose or concentration left out as unconfirmed; details: human, MCF-7 cells
Experimental: (§1) MTT assay was used to measure the in vitro cytotoxicity of the isolated compounds. Human breast adenocarcinoma cell line (MCF-7), human liver hepatocellular carcinoma cell line (HepG2), and human cervical cancer cell line (HeLa) were cultured in Dulbecco’s modified Eagle’s medium (DMEM) and Roswell Park Memorial Institute medium (RPMI 1640), which was supplemented with 10% fetal bovine serum (FBS) at 37 °C in a humidified atmosphere of 5% CO2. The cells were cultured in 96-well plates for 24 h and then treated with test compounds at various concentrations (8–125 μM) for 72 h. After incubation for another 4 h with a 20 µL aliquot of the MTT [3-(4,5-dimethylthiazol-2-yl)-2,5-diphenyl tetrazolium bromide] solution (5 mg/mL in PBS), the medium was discarded, and 150 µL of DMSO was added to dissolve the produced formazan. The absorbance was measured at 490 nm and 570 nm using a microplate reader. Doxorubicin was used as a positive control. Each experiment was carried out in triplicate. The IC50 values were calculated using Graphpad Prism 5 software.

[2] = MTT cytotoxicity assay, HepG2; parameters: cytotoxicity at 72 h / Cytotoxicity (%I) HepG2: dose or concentration left out as unconfirmed; details: human, HepG2 cells
Experimental: as §1

[3] = MTT cytotoxicity assay, HeLa; parameters: cytotoxicity at 72 h / Cytotoxicity (%I) HeLa: dose or concentration left out as unconfirmed; details: human, HeLa cells
Experimental: as §1

[4] = MTT cytotoxicity assay, LO2; parameters: dose or concentration left out as unconfirmed; details: human, LO2 normal liver cells
[5] = system: three human tumor cell lines (HepG2, MCF-7, and HeLa); assay: MTT cytotoxicity assay, summary over three tumor cell lines
[6] = system: human cervical carcinoma cancer cell line (HeLa); parameters: Cytotoxicity (%I) HeLa: dose or concentration left out as unconfirmed
Experimental: as §1

[7] = system: human hepatocellular carcinoma cell line (HepG2); parameters: Cytotoxicity (%I) HepG2: dose or concentration left out as unconfirmed
Experimental: as §1

[8] = system: normal human liver cell line (LO2); parameters: dose or concentration left out as unconfirmed
[9] = system: human breast cancer cell line (MCF-7)
Experimental: as §1

[10] = system: human breast cancer cell line (MCF-7); assay: MTT cytotoxicity assay, MCF-7; parameters: cytotoxicity at 72 h: dose or concentration left out as unconfirmed; details: MCF-7; 4 mg/mL; MTT
Experimental: as §1

[11] = system: human hepatocellular carcinoma cell line (HepG2); assay: MTT cytotoxicity assay, HepG2; parameters: cytotoxicity at 72 h / Cytotoxicity (%I) HepG2: dose or concentration left out as unconfirmed; details: HepG2; MTT
Experimental: as §1

[12] = system: human cervical carcinoma cancer cell line (HeLa); assay: MTT cytotoxicity assay, HeLa; parameters: cytotoxicity at 72 h / Cytotoxicity (%I) HeLa: dose or concentration left out as unconfirmed; details: HeLa; MTT
Experimental: as §1

[13] = system: normal human liver cell line (LO2); assay: MTT cytotoxicity assay, LO2; parameters: dose or concentration left out as unconfirmed; details: LO2 normal liver cells; MTT

Molecule	cytotoxicity at 72 h [1] [%]	cytotoxicity at 72 h [2] [%]	cytotoxicity at 72 h [3] [%]	cytotoxicity at 72 h [4] [%]	other results
CC(C)c1cc2c(cc1O)[C@@]1(C)CCCC(C)(C)[C@@H]1CC2=O [Compound 3, sugiol]	9.2	35	12.3	26.6	–
COc1cccc2c1C(=O)c1c(O)c3c(c(O)c1C2=O)C[C@@](O)(C(=O)CO)C[C@@H]3O[C@H]1C[C@H](N)[C@H](O)[C@H](C)O1 [Doxorubicin, reference compound]	46.5	42.2	49.5	46.7	IC50 at 72 h [1]: 3.44 ± 1.59 µM; IC50 at 72 h [2]: 3.18 ± 1.19 µM; IC50 at 72 h [3]: 3.64 ± 1.37 µM
CC(C)c1cc2c(cc1O)C1(C)CCCC(C)(C)C1=C(O)C2=O (centres unmarked) [Compound 6, 6,12-dihydroxyabieta-5,8,11,13-tetraen-7-one]	84	86.6	83.8	27.8	IC50 at 72 h [1]: 58.4 ± 2.45 µM; IC50 at 72 h [2]: 48.7 ± 1.31 µM; IC50 at 72 h [3]: 24.4 ± 2.05 µM; cytotoxicity in words ([5]; HepG2, MCF-7 and HeLa, MTT): moderate cytotoxicity; IC50 ([5]; Homo sapiens, read-out: IC50 values, range over all three cell lines): 24.4 to 58.4 µM
O=c1ccc2ccc(O)cc2o1 [Compound 13, umbelliferone]	18	32.7	3.6	26.6	–
sempervirol [Compound 10]	–	–	–	–	Cytotoxicity (%I) HeLa [6]: 63.4%; IC50 [6]: 56.9 ± 2.39 µM; Cytotoxicity (%I) HepG2 [7]: 48.67%; IC50 [7]: 64.9 ± 2.64 µM; Cytotoxicity (%I) LO2 [8]: 19.08%; Cytotoxicity (%I @ 4 mg/mL) MCF-7 [9]: 43.4%; IC50 [9]: 80 ± 1.2 µM; cytotoxicity in words [5]: weaker activity
C=C1CCC2C(C)(C(=O)O)CCCC2(C)C1C=CC(C)=O [Compound 1, (4R,5S,9S,10R)-13-des-ethyl-13-oxolabda-8(17),11E-dien-19-oic acid]	28.4	18.4	26.4	20.6	–
helioxanthin [Compound 5]	–	–	–	–	Cytotoxicity (%I @ 4 mg/mL) MCF-7 [10]: 10.09%; Cytotoxicity (%I) HepG2 [11]: 0.11%; Cytotoxicity (%I) HeLa [12]: 0.22%; Cytotoxicity (%I) LO2 [13]: 9.05%
C=C1CC[C@@H]2[C@](C)(CCC[C@]2(C)C(=O)O)[C@H]1C/C=C(/C)C=O [Compound 2, 15-nor-14-oxolabda-8(17),12Z-dien-19-oic acid]	21.1	16.1	23.9	10.6	–
